Test results from the supplement of paper PMC11208160.

Assay: recombinant UMI read abundance after kanamycin selection (control-corrected) (log10(CPM+1)); higher = more efficient recombination; extreme values may be limits of the assay; sequences stand for … in AGTGCAGAGAAAATCGGCCAGTTTTCTCTGCCTGCAGTCCGCATGCCGTGGGACCCCTTGGGTTCTAACCTGTTGCCTAGATTTATGCAGCGGACTGCCTTTCTCCCAAAGTGATAAACCGG…AGGTTGGTTTCACT; site = the 11-nt donor
How it was run: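 In a pooled Escherichia coli screen for the IS621 bridge recombinase, donor and donor-binding-loop pairs were each placed with a 12-nt UMI on a plasmid bearing a promoterless kanamycin gene. This library was co-electroporated with a target plasmid encoding a fixed target and T7-inducible recombinase, and cells were plated either on IPTG (0.07 mM) plus kanamycin or without selection, in two replicates each. Recombinant UMIs were PCR-amplified across the donor–target junction and sequenced, and counts were converted to CPM, averaged over replicates, scaled by control-derived factors and reported as log10(CPM+1).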
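Also: IS621 bridge recombinase in Escherichia coli cells against a fixed T5 target plasmid.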

| Sequence | recombinant UMI read abundance (log10) |
| --- | --- |
| GCTCACCCATGGACCGGTTTTCCCGGTAATCCGTATTTGCT (site GCTCACCCTAG) | 0 |
| GCTCATTCATGGACCGGTTTTCCCGGTAATCCGTATTTGAG (site GCTCATTCTCT) | 1.39 |
| GCTCGCGCATGGACCGGTTTTCCCGGTAATCCGTATTTGTG (site GCTCGCGCTCA) | 0.397 |
| GCTCGTCCATGGACCGGTTTTCCCGGTAATCCGTATTTGGG (site GCTCGTCCTCC) | 0.0164 |
| GCTCTATCATGGACCGGTTTTCCCGGTAATCCGTATTTGCT (site GCTCTATCTAG) | 2.04 |
| GCTGCGCCATGGACCGGTTTTCCCGGTAATCCGTATTTGGA (site GCTGCGCCTTC) | 0.0238 |
| GCTGGGACATGGACCGGTTTTCCCGGTAATCCGTATTTGTG (site GCTGGGACTCA) | 0.944 |
| GCTGGTACATGGACCGGTTTTCCCGGTAATCCGTATTTGCG (site GCTGGTACTCG) | 1.68 |
| GCTGTGTCATGGACCGGTTTTCCCGGTAATCCGTATTTGCG (site GCTGTGTCTCG) | 2.07 |
| GCTTAAGCATGGACCGGTTTTCCCGGTAATCCGTATTTGCC (site GCTTAAGCTGG) | 0.666 |
| GCTTACACATGGACCGGTTTTCCCGGTAATCCGTATTTGCG (site GCTTACACTCG) | 1.72 |
| GCTTACCCATGGACCGGTTTTCCCGGTAATCCGTATTTGAT (site GCTTACCCTAT) | 0.0241 |
| GCTTACCCATGGACCGGTTTTCCCGGTAATCCGTATTTGAT (site GCTTCCCCTAT) | 0 |
| GCTTACCCATGGACCGGTTTTCCCGGTAATCCGTATTTGAT (site GCTTGCCCTAT) | 0.0186 |
| GCTTACCCATGGACCGGTTTTCCCGGTAATCCGTATTTGAT (site GCTTTCCCTAT) | 0 |
| GCTTATCCATGGACCGGTTTTCCCGGTAATCCGTATTTGCT (site GATTATCCTAG) | 0 |
| GCTTATCCATGGACCGGTTTTCCCGGTAATCCGTATTTGCT (site GCTTATCCTAG) | 1.03 |
| GCTTATCCATGGACCGGTTTTCCCGGTAATCCGTATTTGCT (site GGTTATCCTAG) | 0 |
| GCTTATCCATGGACCGGTTTTCCCGGTAATCCGTATTTGCT (site GTTTATCCTAG) | 0 |
| GCTTCCGCATGGACCGGTTTTCCCGGTAATCCGTATTTGTT (site GCTTCCGCTAA) | 1.48 |
| GCTTCTACATGGACCGGTTTTCCCGGTAATCCGTATTTGTA (site GCTTCTACTTA) | 0.541 |
| GCTTGACCATGGACCGGTTTTCCCGGTAATCCGTATTTGAT (site GCTTGACCTAT) | 0.00317 |
| GCTTGACCATGGACCGGTTTTCCCGGTAATCCGTATTTGAT (site GCTTGCCCTAT) | 0.00707 |
| GCTTGACCATGGACCGGTTTTCCCGGTAATCCGTATTTGAT (site GCTTGGCCTAT) | 0.117 |
| GCTTGACCATGGACCGGTTTTCCCGGTAATCCGTATTTGAT (site GCTTGTCCTAT) | 0.00374 |

| Sequence | recombinant UMI read abundance (log10) |
| --- | --- |
| GCTTGCCCATGGACCGGTTTTCCCGGTAATCCGTATTTGAA (site GCTTGCCCTAT) | 0 |
| GCTTGCCCATGGACCGGTTTTCCCGGTAATCCGTATTTGAA (site GCTTGCCCTCT) | 0.00774 |
| GCTTGCCCATGGACCGGTTTTCCCGGTAATCCGTATTTGAA (site GCTTGCCCTGT) | 0 |
| GCTTGCCCATGGACCGGTTTTCCCGGTAATCCGTATTTGAA (site GCTTGCCCTTT) | 0.0264 |
| GCTTGCCCATGGACCGGTTTTCCCGGTAATCCGTATTTGAC (site GCTTGCCCTAT) | 0 |
| GCTTGCCCATGGACCGGTTTTCCCGGTAATCCGTATTTGAC (site GCTTGCCCTCT) | 0.0563 |
| GCTTGCCCATGGACCGGTTTTCCCGGTAATCCGTATTTGAC (site GCTTGCCCTGT) | 0 |
| GCTTGCCCATGGACCGGTTTTCCCGGTAATCCGTATTTGAC (site GCTTGCCCTTT) | 0.0621 |
| GCTTGGACATGGACCGGTTTTCCCGGTAATCCGTATTTGGA (site GCTTGGACTTC) | 0.32 |
| GGAAATCCATGGACCGGTTTTCCCGGTAATCCGTATTTGGG (site GGAAATCCTCC) | 0.00368 |
| GGAACGTCATGGACCGGTTTTCCCGGTAATCCGTATTTGTT (site GGAACGTCTAA) | 0.993 |
| GGAACGTCATGGACCGGTTTTCCCGGTAATCCGTATTTGTT (site GGCACGTCTAA) | 0.00816 |
| GGAACGTCATGGACCGGTTTTCCCGGTAATCCGTATTTGTT (site GGGACGTCTAA) | 0.28 |
| GGAACGTCATGGACCGGTTTTCCCGGTAATCCGTATTTGTT (site GGTACGTCTAA) | 0.00512 |
| GGAACTACATGGACCGGTTTTCCCGGTAATCCGTATTTGCC (site GGAACTACTGG) | 1.05 |
| GGAAGCACATGGACCGGTTTTCCCGGTAATCCGTATTTGGG (site GGAAGCACTCC) | 0.0218 |
| GGAAGTACATGGACCGGTTTTCCCGGTAATCCGTATTTGAC (site GGAAGTACTGT) | 2.57 |
| GGAAGTGCATGGACCGGTTTTCCCGGTAATCCGTATTTGAA (site GGAAGTGCTTT) | 2.27 |
| GGAATCTCATGGACCGGTTTTCCCGGTAATCCGTATTTGAA (site GGAATCTCTTT) | 2.55 |
| GGAATGTCATGGACCGGTTTTCCCGGTAATCCGTATTTGTT (site GGAATGTCTAA) | 2.44 |
| GGAGACGCATGGACCGGTTTTCCCGGTAATCCGTATTTGGT (site GGAGACGCTAC) | 0.461 |
| GGAGCCTCATGGACCGGTTTTCCCGGTAATCCGTATTTGAC (site GGAGCCTCTGT) | 2.15 |
| GGAGCTACATGGACCGGTTTTCCCGGTAATCCGTATTTGAG (site GGAGCTACTCT) | 0.606 |
| GGAGGCGCATGGACCGGTTTTCCCGGTAATCCGTATTTGCC (site GGAGGCGCTGG) | 3.44 |
| GGAGGGGCATGGACCGGTTTTCCCGGTAATCCGTATTTGGT (site GGAGAGGCTAC) | 0.335 |

| Sequence | recombinant UMI read abundance (log10) |
| --- | --- |
| GGAGGGGCATGGACCGGTTTTCCCGGTAATCCGTATTTGGT (site GGAGCGGCTAC) | 0.00457 |
| GGAGGGGCATGGACCGGTTTTCCCGGTAATCCGTATTTGGT (site GGAGGGGCTAC) | 0.699 |
| GGAGGGGCATGGACCGGTTTTCCCGGTAATCCGTATTTGGT (site GGAGTGGCTAC) | 0.0205 |
| GGAGTGGCATGGACCGGTTTTCCCGGTAATCCGTATTTGGG (site GGAGTGGCTAC) | 0.497 |
| GGAGTGGCATGGACCGGTTTTCCCGGTAATCCGTATTTGGG (site GGAGTGGCTCC) | 0.779 |
| GGAGTGGCATGGACCGGTTTTCCCGGTAATCCGTATTTGGG (site GGAGTGGCTGC) | 0 |
| GGAGTGGCATGGACCGGTTTTCCCGGTAATCCGTATTTGGG (site GGAGTGGCTTC) | 0.00897 |
| GGAGTTGCATGGACCGGTTTTCCCGGTAATCCGTATTTGGT (site GGAGTAGCTAC) | 0.089 |
| GGAGTTGCATGGACCGGTTTTCCCGGTAATCCGTATTTGGT (site GGAGTCGCTAC) | 1.05 |
| GGAGTTGCATGGACCGGTTTTCCCGGTAATCCGTATTTGGT (site GGAGTGGCTAC) | 0.00345 |
| GGAGTTGCATGGACCGGTTTTCCCGGTAATCCGTATTTGGT (site GGAGTTGCTAC) | 0.861 |
| GGATACACATGGACCGGTTTTCCCGGTAATCCGTATTTGGG (site GGATACACTCC) | 0.348 |
| GGATAGACATGGACCGGTTTTCCCGGTAATCCGTATTTGCT (site GGATAGACTAG) | 2.78 |
| GGATAGACATGGACCGGTTTTCCCGGTAATCCGTATTTGCT (site GGATAGACTCG) | 0.855 |
| GGATAGACATGGACCGGTTTTCCCGGTAATCCGTATTTGCT (site GGATAGACTGG) | 2.33 |
| GGATAGACATGGACCGGTTTTCCCGGTAATCCGTATTTGCT (site GGATAGACTTG) | 1.1 |
| GGATAGCCATGGACCGGTTTTCCCGGTAATCCGTATTTGAG (site GGATAGCCTCT) | 0.00752 |
| GGATAGCCATGGACCGGTTTTCCCGGTAATCCGTATTTGCC (site GGATAGACTGG) | 0 |
| GGATAGCCATGGACCGGTTTTCCCGGTAATCCGTATTTGCC (site GGATAGCCTGG) | 0 |
| GGATAGCCATGGACCGGTTTTCCCGGTAATCCGTATTTGCC (site GGATAGGCTGG) | 0 |
| GGATAGCCATGGACCGGTTTTCCCGGTAATCCGTATTTGCC (site GGATAGTCTGG) | 2.42 |
| GGATAGGCATGGACCGGTTTTCCCGGTAATCCGTATTTGCC (site GGATAGACTGG) | 1.94 |
| GGATAGGCATGGACCGGTTTTCCCGGTAATCCGTATTTGCC (site GGATAGCCTGG) | 0.855 |
| GGATAGGCATGGACCGGTTTTCCCGGTAATCCGTATTTGCC (site GGATAGGCTGG) | 2.44 |
| GGATAGGCATGGACCGGTTTTCCCGGTAATCCGTATTTGCC (site GGATAGTCTGG) | 0.642 |
